Laboratory results published in publication PMC11655904, “[^89Zr]Zr-DFO-TOC: a novel radiopharmaceutical for PET imaging of somatostatin receptor positive neuroendocrine tumors” (EJNMMI Radiopharmacy and Chemistry, 2024).
“And” between values parts separate entries of the source, which are not always exact repeats. Equal values may be shown once. “Also recorded” adds a separate entry of the source.

Tests used:
[1] = Benchtop stability of the radiotracer (radio-HPLC and iTLC); assay type: physicochemical; conditions: mean ± standard deviation
Procedure: To neutralize [^89Zr]Zr-oxalate, an equal volume of [^89Zr]Zr-oxalate and 0.5 M Thermo Scientific HEPES (concentration 99%) buffer were mixed. The pH of the sample was then adjusted using 5.0 M NaOH. For all radiolabeling experiments, 100 µCi (3.7 MBq) of ^89Zr (pH ~ 7.4) was incubated with varying molar quantities of DFO-TOC and 1.0 M HEPES buffer in a final incubation volume of 200 µL. The reaction was incubated on a thermomixer at 37 °C and 800 rpm for 30 min. The molar activity was determined by radiolabeling 1 nmol of DFO-TOC with varying activities of ^89Zr up to 1500 µCi (55.5 MBq) and 1.0 M HEPES buffer in a final incubation volume of 200 µL. Samples were incubated using the same conditions as the radiochemical yield assays. Samples were analyzed using an Agilent (Santa Clara, CA) 1260 Infinity II high-performance liquid chromatography (HPLC) instrument with a LabLogic (Chantilly, VA) Flow-RAM radio-HPLC detector. Radiochemical yields were determined via radio-HPLC using a reversed-phase C18 selectivity column (5 μm particle size, 150 mm length, and 4.6 mm diameter).
The samples were assessed for benchtop stability and stability in mouse serum only if a radiochemical yield of 95% or greater was achieved. Benchtop stability was assessed at time points of 30 min, 1 h, 1 day, 2 days, 3 days, 6 days, and 9 days using an Eckert & Ziegler (Valencia, CA) AR-2000 instant Thin Layer Chromatography (iTLC) and radio-HPLC. Diethylenetriamine pentaacetic acid was used as the mobile phase for iTLC, while radio-HPLC used the gradient described previously. Stability in mouse serum was assessed by adding 100 µL of a 200 [drawing 3] […] No further sample purification was conducted before injection on the radio-HPLC. All samples remained on a thermomixer at 37 °C and 800 rpm, and aliquots were removed for analysis by using iTLC and radio-HPLC, after 1 h, 1 day, 2 days, 3 days, 5 days, 6 days, and 9 days.

[2] = tested on: AR42J cells (SSTR2 high expression); assay: Receptor binding and competitive receptor blocking assay, AR42J cells; assay type: cell-based
Procedure: (§1) Cells were seeded in Fisherbrand™ 12-well surface-treated culture plates with 1 million cells per well for each cell line and were allowed to adhere overnight under normal cell culture conditions. Samples were not purified to remove excess DFO-TOC. For receptor binding and blocking experiments, each well was incubated with [^89Zr]Zr-DFO-TOC (0.025 nmol DFO-TOC per well, 1 µCi (0.037 MBq) of [^89Zr]) in 1mL of cell media. For receptor blocking experiments,
(§2) 2.5 nmol unlabeled DFO-TOC was added to each well, in addition to [^89Zr]Zr-DFO-TOC. Culture plates were incubated with the tracer for 1 h, 3 h, 1 day, 3 days, 5 days, and 6 days. At each timepoint, the media was removed and the cells were washed with PBS twice. Cells were detached using 1 mL of 1 M NaOH and collected in a microcentrifuge tube for analysis using a Revvity (Waltham, MA) Wizard2 Gamma Counter. BCA assays were used to estimate protein concentrations per the manufacturer’s instructions.
(§3) All data was analyzed using GraphPad Prism (San Diego, CA) and is presented as a mean ± standard deviation. Statistical analysis was completed using a paired nonparametric t-test (α = 0.05) to compare cell total binding and cell blocking groups.

AR42J cells = assay: Internalization assay, AR42J cells; assay type: cell-based; conditions: 0.025 nmol DFO-TOC, 1 µCi per well; time points 30 min, 1 h, 3 h; trypsin and sodium citrate pH 2 strip
Procedure: (§4) Cells were seeded in Fisherbrand™ 12-well surface-treated culture plates with 1 million cells per well for each cell line and were allowed to grow overnight under cell culture conditions. For internalization experiments, each well received 0.025 nmol DFO-TOC radiolabeled with 1 µCi (0.037 MBq) of [^89Zr]Zr-DFO-TOC in 1 mL of cell media. Plates were incubated with [^89Zr]Zr-DFO-TOC for 30 min, 1 h, and 3 h. Cells were detached from the wells using 800 µL of 0.05% Gibco trypsin incubated for 5 min. Cells were sedimented using a benchtop centrifuge at 7000 g for 5 min. The supernatant was removed, and the cells were resuspended in 200 µL of 0.1 M Supelco sodium citrate (pH 2) for 5 min. The cells were sedimented using a benchtop microcentrifuge and the supernatant was added to the trypsin. The supernatant and cell pellet activities were determined using the Wizard2 Gamma Counter.

[3] = tested on: PANC-1 cells (SSTR2 minimal expression); assay: Receptor binding and competitive receptor blocking assay, PANC-1 cells; assay type: cell-based
Procedure: as §1, §2, §3

PANC-1 cells = assay: Internalization assay, PANC-1 cells; assay type: cell-based; conditions: 0.025 nmol DFO-TOC, 1 µCi per well; time points 30 min, 1 h, 3 h; trypsin and sodium citrate pH 2 strip
Procedure: as §4

[4] = 100 µL of tracer sample (200 µCi, 7.4 MBq) in 400 µL prefiltered mouse serum, 37 °C, 800 rpm, mean ± standard deviation
Procedure: To neutralize [^89Zr]Zr-oxalate, an equal volume of [^89Zr]Zr-oxalate and 0.5 M Thermo Scientific HEPES (concentration 99%) buffer were mixed. The pH of the sample was then adjusted using 5.0 M NaOH. For all radiolabeling experiments, 100 µCi (3.7 MBq) of ^89Zr (pH ~ 7.4) was incubated with varying molar quantities of DFO-TOC and 1.0 M HEPES buffer in a final incubation volume of 200 µL. The reaction was incubated on a thermomixer at 37 °C and 800 rpm for 30 min. The molar activity was determined by radiolabeling 1 nmol of DFO-TOC with varying activities of ^89Zr up to 1500 µCi (55.5 MBq) and 1.0 M HEPES buffer in a final incubation volume of 200 µL. […] Samples were analyzed using an Agilent (Santa Clara, CA) 1260 Infinity II high-performance liquid chromatography (HPLC) instrument with a LabLogic (Chantilly, VA) Flow-RAM radio-HPLC detector. Radiochemical yields were determined via radio-HPLC using a reversed-phase C18 selectivity column (5 μm particle size, 150 mm length, and 4.6 mm diameter).
The samples were assessed for benchtop stability and stability in mouse serum only if a radiochemical yield of 95% or greater was achieved. Benchtop stability was assessed at time points of 30 min, 1 h, 1 day, 2 days, 3 days, 6 days, and 9 days using an Eckert & Ziegler (Valencia, CA) AR-2000 instant Thin Layer Chromatography (iTLC) and radio-HPLC. […]

PC-3 cells = assay: Internalization assay, PC-3 cells; assay type: cell-based
Procedure: as §4

[5] = tested on: PC-3 cells (SSTR2 moderate expression); assay: Receptor binding and competitive receptor blocking assay, PC-3 cells; assay type: cell-based; conditions: 2.5 nmol unlabeled DFO-TOC (100x excess) as blocking agent; at 120 h; p = 0.0001; paired nonparametric t-test
Procedure: as §1, §2, §3

SSTR2, AR42J = conditions: ref Vaidyanathan et al. [2003], Hofland et al. [1999]; cited from earlier work
SSTR2 = tested on: SSTR2; design: method as in Buscail et al. [1994]; conditions: ref Buscail et al. [1994]; cited from earlier work
Source text: (§5) Significant progress has been made in recent years towards understanding the underlying biology and molecular pathways involved with NETs, particularly the role of somatostatin receptors (SSTRs) and their downstream pathways. SSTRs (SSTR1, 2 A/2B, 3, 4, and 5) belong to a family of G protein-coupled receptors with seven transmembrane-spanning proteins that bind the cyclic peptide somatostatin (SST) (Theodoropoulou and Stalla [2013]). SST regulates cell growth and inhibits hormone secretion in the endocrine and exocrine systems (Brereton et al. [2015]; Ampofo et al. [2020]). Prior research has ...

[6] = ref Brereton et al. [2015]; Lamberts et al. [1996]; cited from earlier work
Source text: as §5, with “[2020]).” for “[2020]). Prior research has ...”

CC(=O)N(O)CCCCCNC(=O)CCC(=O)N(O)CCCCCNC(=O)CCC(=O)N(O)CCCCCNC(=S)Nc1ccc(NC(=S)NCCCCCC(=O)N[C@H](Cc2ccccc2)C(=O)N[C@H]2CSSC[C@@H](C(=O)N[C@H](CO)[C@@H](C)O)NC(=O)[C@H]([C@@H](C)O)NC(=O)[C@H](CCCCN)NC(=O)[C@@H](Cc3c[nH]c4ccccc34)NC(=O)[C@H](Cc3ccc(O)cc3)NC2=O)cc1 [[^89Zr]Zr-DFO-TOC, metal not drawn]
radiochemical yield on the benchtop after 9 days, iTLC ([1]; iTLC, diethylenetriamine pentaacetic acid mobile phase): 97 ± 4% | radiochemical yield on the benchtop after 9 days, radio-HPLC ([1]; radio-HPLC, C18, 0.1% TFA water/acetonitrile gradient): 89.6% and 90 ± 4% | tracer uptake (total binding) in AR42J cells compared with the other cell lines ([2]; 0.025 nmol DFO-TOC, 1 µCi per well, 1 million cells per well, 1 h to 6 days, gamma counter, P < 0.0001 vs PC-3 and p = 0.0001 vs PANC-1 after 1 h): highest uptake; also recorded: higher uptake than PC-3 and PANC-1 cell lines at all time points | time at which AR42J cell binding reached saturation ([2]; 0.025 nmol DFO-TOC, 1 µCi per well, time points 1 h to 6 days): 5 days | blocking versus total binding groups, AR42J ([2]; 2.5 nmol unlabeled DFO-TOC (100x excess) as blocking agent, after 1 h, p < 0.0001, paired nonparametric t-test): statistically significant difference | time of maximum cell internalization, AR42J (AR42J cells): 3 h | tracer uptake in PANC-1 cells ([3]; 0.025 nmol DFO-TOC, 1 µCi per well, attributed to low SSTR2 expression): Low | blocking versus total binding groups, PANC-1 ([3]; 2.5 nmol unlabeled DFO-TOC (100x excess) as blocking agent, all time points, paired nonparametric t-test): No statistically significant difference | time of maximum cell internalization, PANC-1 (PANC-1 cells): 3 h | radiochemical yield in mouse serum after 9 days, radio-HPLC [4]: 89 ± 2% | time of maximum cell internalization, PC-3 (PC-3 cells; 0.025 nmol DFO-TOC, 1 µCi per well, time points 30 min, 1 h, 3 h, trypsin and sodium citrate pH 2 strip): 3 h | percentage of tracer internalized in PC-3 compared with AR42J and PANC-1 (PC-3 cells; time points up to 3 h): higher percentage of the tracer was internalized | blocking versus total binding groups, PC-3 [5]: statistically significant difference

[Tyr3, Thr8]-octreotide
earliest time at which SSTR2 internalization was observed (SSTR2, AR42J): 2.5 min

octreotide
receptor affinity for SSTR2 (SSTR2): high receptor affinity

somatostatin [SST]
bioactive half-life [6]: < 1 min
